Test results from ChEMBL document CHEMBL1201862, “PubChem BioAssay data set” (2004).
Values joined by “and” are separate entries in the source; they are usually repeats but may differ in a detail not shown here. Equal entries are not always repeated.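 Values below derive from 48-hour exposures of cells grown in 96-well plates, with endpoints linearly interpolated between the two concentrations bracketing the appropriate inhibition level. The concentration for 50% growth inhibition is given as GI50.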 Active and inactive are the calls of the source. Rule as the data show it: active = GI50 up to about 1.1 µM and inactive = higher.

Assays:
Assay in all cases: NCI-60 cell line screen, 48 h
[1] = system: SN12C
[2] = system: BT-549
[3] = system: NCI-H460
[4] = system: OVCAR-8
[5] = system: NCI/ADR-RES
[6] = system: HOP-92
[7] = system: HCT-15
[8] = system: HOP-62
[9] = system: SK-OV-3
[10] = system: OVCAR-3
[11] = system: MDA-N
[12] = system: SK-MEL-28
[13] = system: SF-268
[14] = system: SF-539
[15] = system: HT-29
[16] = system: M14
[17] = system: RXF 393
[18] = system: CCRF-CEM
[19] = system: T47D
[20] = system: K562

SMILES | GI50 [1] | GI50 [2] | GI50 [3] | GI50 [4] | GI50 [5] | GI50 [6] | GI50 [7] [µM] | GI50 [8] | GI50 [9] | GI50 [10] | GI50 [11] | GI50 [12] | GI50 [13] | GI50 [14] | GI50 [15] | GI50 [16] | GI50 [17] | GI50 [18] | GI50 [19] | GI50 [20]
CC1=CC(=O)/C(=C/n2c(=S)[nH]c3cc(C)ccc32)C(=O)O1 | > 100 µM (inactive) | > 100 µM (inactive) | > 100 µM (inactive) | > 100 µM (inactive) | > 100 µM (inactive) | > 100 µM (inactive) | > 100 | > 100 µM (inactive) | > 100 µM (inactive) | > 100 µM (inactive) | > 100 µM (inactive) | > 100 µM (inactive) | > 100 µM (inactive) | > 100 µM (inactive) | > 100 µM (inactive) | > 100 µM (inactive) | 6.21 µM (inactive) | 98.9 µM (inactive) |  | 
CCOC(=O)c1c(-c2ccc(O)c(OC)c2)c(C#N)c(=S)n(C2OC(COC(C)=O)C(OC(C)=O)C(OC(C)=O)C2OC(C)=O)c1-c1ccccc1 (stereo not drawn) | > 100 µM (inactive) and 88.9 µM (inactive) | 57.7 µM (inactive) and 32.6 µM (inactive) | > 100 µM (inactive) and 70.1 µM (inactive) |  | 72.1 µM (inactive) | 24.9 µM (inactive) | 98.2 | 61.4 µM (inactive) |  |  | 61.7 µM (inactive) and 39.4 µM (inactive) | 58.2 µM (inactive) | > 100 µM (inactive) and 70.6 µM (inactive) |  | 59.7 µM (inactive) and 32.1 µM (inactive) | 82.4 µM (inactive) | > 100 µM (inactive) and 58.9 µM (inactive) | 58.7 µM (inactive) and 45.4 µM (inactive) |  | 
CCOC(=O)C1=CNC2=N[C@H]3CCCC[C@@H]3N2C1=O | > 100 µM (inactive) | > 100 µM (inactive) | > 100 µM (inactive) | > 100 µM (inactive) | > 100 µM (inactive) | > 100 µM (inactive) | > 100 |  | > 100 µM (inactive) | > 100 µM (inactive) | > 100 µM (inactive) | > 100 µM (inactive) | > 100 µM (inactive) | > 100 µM (inactive) | > 100 µM (inactive) | > 100 µM (inactive) |  | > 100 µM (inactive) | > 100 µM (inactive) | > 100 µM (inactive)
CCN(CC)c1ccc2cc(-c3nnc(-c4ccccc4O)o3)c(=O)oc2c1 |  | 5.75 µM (inactive) | 7.08 µM (inactive) | 2.4 µM (inactive) | 10.5 µM (inactive) |  | 5.75 | 5.51 µM (inactive) | 17.1 µM (inactive) | 5.97 µM (inactive) | 12.5 µM (inactive) | 11.7 µM (inactive) | 6.92 µM (inactive) | 8.18 µM (inactive) | 11.7 µM (inactive) | 11.1 µM (inactive) |  | 2.37 µM (inactive) |  | 5.96 µM (inactive)
O=C1OC(C2Cc3ccc4c(c3C2=O)CCCC4)c2ccccc21 (stereo not drawn) | 28.5 µM (inactive) | 54.8 µM (inactive) | 27.3 µM (inactive) | 43.9 µM (inactive) | 46 µM (inactive) |  | 28.4 | 74.1 µM (inactive) | 73.6 µM (inactive) | 34.3 µM (inactive) | 34.8 µM (inactive) | 52.5 µM (inactive) | 49.2 µM (inactive) | 24.7 µM (inactive) | 36.6 µM (inactive) | 50.4 µM (inactive) |  | 15.3 µM (inactive) | 63 µM (inactive) | 21.8 µM (inactive)
CC(C)(C)OC(=O)NC(Cc1ccc(OC(C)(C)C)cc1)C(=O)N[C@H]1CC[C@H](C(=O)O)C1 (stereo partly drawn) | > 100 µM (inactive) | 45 µM (inactive) | > 100 µM (inactive) | > 100 µM (inactive) | > 100 µM (inactive) |  | > 100 | > 100 µM (inactive) | > 100 µM (inactive) |  | > 100 µM (inactive) | > 100 µM (inactive) | > 100 µM (inactive) | > 100 µM (inactive) | > 100 µM (inactive) | > 100 µM (inactive) |  | > 100 µM (inactive) | > 10 µM (inactive) | > 100 µM (inactive)
COc1ccc(NCc2cccc3c(=O)c4ccc(Cl)cc4oc23)cc1 | > 100 µM (inactive) | > 100 µM (inactive) |  | > 100 µM (inactive) | > 100 µM (inactive) | 2.5 µM (inactive) | > 100 | > 100 µM (inactive) | > 100 µM (inactive) | > 100 µM (inactive) | > 100 µM (inactive) | > 100 µM (inactive) |  | > 100 µM (inactive) |  | > 100 µM (inactive) |  | > 100 µM (inactive) | > 100 µM (inactive) | > 100 µM (inactive)
CCOC(=O)c1cccc([N+](=O)[O-])c1N | > 100 µM (inactive) | > 100 µM (inactive) | > 100 µM (inactive) | > 100 µM (inactive) | > 100 µM (inactive) | > 100 µM (inactive) | > 100 | > 100 µM (inactive) | > 100 µM (inactive) | > 100 µM (inactive) | > 100 µM (inactive) | > 100 µM (inactive) |  | > 100 µM (inactive) | > 100 µM (inactive) | > 100 µM (inactive) |  | > 100 µM (inactive) | > 100 µM (inactive) | > 100 µM (inactive)
O=C(Nc1ccc(Cl)cc1)[C-](C(=O)c1ccc(Br)cc1)[n+]1cccc(-c2ccc(Cl)cc2)n1 | 2.88 µM (inactive) | 2.54 µM (inactive) | 3.44 µM (inactive) | 3.56 µM (inactive) | 3.53 µM (inactive) | 3.61 µM (inactive) | 3.93 | 6.28 µM (inactive) | 6.35 µM (inactive) | 2.92 µM (inactive) | 4.53 µM (inactive) | 8.77 µM (inactive) | 4.62 µM (inactive) |  |  | 3.68 µM (inactive) |  |  | 1.64 µM (inactive) | 6.3 µM (inactive)
CCCCNC1CCC2(SCCS2)c2[nH]c3ccccc3c21 (stereo not drawn) | 37.7 µM (inactive) | 23.4 µM (inactive) | 33.3 µM (inactive) | 14.4 µM (inactive) | 21.6 µM (inactive) | 28.4 µM (inactive) | 4.78 | > 53.8 µM (inactive) | 49.8 µM (inactive) | 8.41 µM (inactive) |  | 34.3 µM (inactive) | 19.9 µM (inactive) | 13.7 µM (inactive) | 25.2 µM (inactive) | 17.1 µM (inactive) | 21 µM (inactive) | 3.2 µM (inactive) | 2.56 µM (inactive) | 10.1 µM (inactive)
COc1ccccc1C(=O)OCC1CCCN2CCCCC12 (stereo not drawn) | 29.7 µM (inactive) | 17.7 µM (inactive) | 21.6 µM (inactive) | 21 µM (inactive) | 37.3 µM (inactive) | > 100 µM (inactive) | 36.6 |  | > 100 µM (inactive) |  |  | 26.4 µM (inactive) | 36.5 µM (inactive) | > 100 µM (inactive) | 16.6 µM (inactive) |  | 22.2 µM (inactive) | 18.6 µM (inactive) | 16.1 µM (inactive) | 33.9 µM (inactive)
COc1cc(/C=C/C(=O)CC(=O)/C=C/c2cc(C)c(O)c(OC)c2)cc(C)c1O | > 100 µM (inactive) | > 100 µM (inactive) | > 100 µM (inactive) | > 100 µM (inactive) | > 100 µM (inactive) | < 0.01 µM (active) | > 100 | > 100 µM (inactive) | > 100 µM (inactive) | 83.4 µM (inactive) |  | > 100 µM (inactive) | > 100 µM (inactive) | > 100 µM (inactive) | > 100 µM (inactive) | > 100 µM (inactive) |  | 65.6 µM (inactive) | > 100 µM (inactive) | > 100 µM (inactive)
CCSCCCCC(c1ccc(O)cc1)C(C)(CC)c1ccc(O)cc1 (stereo not drawn) | 33.1 µM (inactive) |  | 30.1 µM (inactive) | 19.3 µM (inactive) | 20.3 µM (inactive) | 19.3 µM (inactive) | 18.4 | 53.7 µM (inactive) | 21.1 µM (inactive) | 18.2 µM (inactive) | 23.2 µM (inactive) | 18 µM (inactive) | 20.3 µM (inactive) | 20 µM (inactive) |  | 31 µM (inactive) | 6.92 µM (inactive) | 18.6 µM (inactive) | 14.4 µM (inactive) | 42.1 µM (inactive)
COc1ccc(C2(c3ccc(OC)cc3)OC(=O)c3cccc4cccc2c34)cc1 | 23.8 µM (inactive) | 11.4 µM (inactive) | 4.69 µM (inactive) | 15.7 µM (inactive) | 2.72 µM (inactive) | > 100 µM (inactive) | 4.15 | 6.98 µM (inactive) | 6.46 µM (inactive) | 4.81 µM (inactive) |  |  | > 100 µM (inactive) | 3.48 µM (inactive) | 2.4 µM (inactive) | 3.78 µM (inactive) | 15.9 µM (inactive) | 3.18 µM (inactive) | 2.24 µM (inactive) | 3.36 µM (inactive)
C[C@@H]([C@H]1CC[C@@]2(C)[C@@H]3CC[C@@H]4C(=CC3=CC[C@]12C)CC[C@H](N(C)C)C4(C)C)N(C)C [BUXAMINE A] | > 100 µM (inactive) |  | > 100 µM (inactive) | > 100 µM (inactive) | > 100 µM (inactive) | > 100 µM (inactive) | > 100 | > 100 µM (inactive) | > 100 µM (inactive) | > 100 µM (inactive) | > 100 µM (inactive) | > 100 µM (inactive) | > 100 µM (inactive) | > 100 µM (inactive) | > 100 µM (inactive) | > 100 µM (inactive) | > 100 µM (inactive) | > 100 µM (inactive) | > 100 µM (inactive) | > 100 µM (inactive)
COc1ccc(/C=C/c2cc(OC)cc(=O)o2)cc1 [YANGONIN] | > 100 µM (inactive) |  | > 100 µM (inactive) | > 100 µM (inactive) | > 100 µM (inactive) | 45.2 µM (inactive) | > 100 | 40 µM (inactive) | 91.4 µM (inactive) | > 100 µM (inactive) | 91.6 µM (inactive) | > 100 µM (inactive) | 60.1 µM (inactive) | 10.2 µM (inactive) | > 100 µM (inactive) | 68.4 µM (inactive) | 44.2 µM (inactive) | > 100 µM (inactive) | > 100 µM (inactive) | 63.1 µM (inactive)
